Results on ten sequences are retold here after patent US20230167437A1, “COMPOSITIONS FOR TREATING CANCER WITH KRAS MUTATIONS AND USES THEREOF” (Aadigen, LLC, priority 2020, published 2023).

What all share (type): cell-based, human
One data set relates to KRAS 34G>T mutant G12C. The data set can be described thus: Indel frequencies at the endogenous target sequences (T7E1 / deep sequencing) after ADGN/Cas9 mRNA/gRNA transfection. The note with it: Mia-PACA, H23, H358 vs HT29 and PANC1 cells. Here is the method: (§1) Complex formation with mRNA:gRNA: ADGN peptide/mRNA/gRNA particles were prepared at a 20:1:1 molar ratio. ADGN/Cas9mRNA/sgRNA complexes were prepared at a 20/1/1 molar ratio with 0.5 μg mRNA: 1.5 μg sgRNA and 5% Glucose or DMEM (example for 96 well plates). […] Premixed Cas9 mRNA/gRNA were prepared in sterile water at room temperature in a glass vial (1-4 ml). ADGN-peptide solution was added dropwise (1 drop/sec) under magnetic agitation at 400 rpm to obtain a 1:2 ratio, and incubated for 30 min at room temperature or 37° C. Just before transfection, 150 μl Glucose or DMEM was added and the solution was mixed under magnetic agitation at 400 rpm for 1 minute. Then the solution was incubated for 5 min at 37° C. Then the complexes was ready for cell transfection or IV administration. Prior to IV administration, complexes were diluted in sucrose 5% solution.
(§2) Transfection protocol. The following protocols are reported for 24/48/96 well plate format transfection. Cells should be trypsinized and seeded a day prior transfection Cells were cultured in Dulbecco's Modified Eagle's Medium (DMEM), supplemented with 2 mM glutamine, 1% antibiotics (streptomycin 10,000 μg/mL, penicillin, 10,000 IU/mL) and 10% (w/v) foetal calf serum (FCS), at 37° C. in a humidified atmosphere containing 5% CO2. 96 well plates seeded with 50,000 cells, the day prior transfection, grown to 60-80% confluence and set up to be at around 70% confluence at the day of transfection. Before transfection, cells are washed twice with DMEM (without FBS and pen/strep) (100 μl/well). Cells were then overlaid with 25 μl of complex solution, mixed gently and incubated for 10 min at 37° C.+5% CO2. 50 μl of fresh DMEM (without FBS and Antibiotics) was added and cells were incubated for 2 h at 37° C.+5% CO2 (time of exposure can be adjusted based on sensitivity of the cells). 250 μL of DMEM (containing 10% FCS and 1% antibiotics) were then added without removing the overlay of ADGN peptide/mRNA complexes. Cells were returned to the incubator (37° C., 5% CO2) and analyzed 48 hours to 72 hours post transfection.
Eight different gRNAs targeting KRAS 34G>T mutant G12C (gRNA34T1, gRNA34T2, gRNA34T3, gRNA34T4, gRNA34T5, gRNA34T6, gRNA34T7 and gRNA34T8) were evaluated on MIA-PACA, H23, H358, H29 and PANC1 cells. Cas9 mRNA (0.1 μg) and gRNA (0.2 μg) were associated with ADGN peptide at molar ratio 20/1 (peptide/nucleic acid). MIA-PACA, H23, H358, PANC1 and HT29 cells were cultured in 48 well plate format and treated with free mRNACas9-gRNA, or ADGN/mRNACas9:gRNA complex. Indel frequencies at the endogenous target sequences was evaluated 72 hours after transfection by either T7E1 method or deep sequencing. Cell proliferation was analyzed over a period of 5 days using CellTiter Glow kits on GlowMax (Promega).
(§3) In order to confirm the specificity of sgRNAs targeting G12V, G12C or G12D KRAS mutation, gRNA35T3 targeting G12V, gRNA34T6 targeting G12C, and gRNA35A5 targeting G12D were evaluated on a large panel of cancer cells harboring different KRAS mutations including SW403, SW480, PANC1, PK-45H, PK-1, MIA-PACA, H23, H358, HT-29, HS-68 and LS513. Cas9 mRNA (0.2 μg) and gRNA (0.4 μg) were associated with ADGN peptide at molar ratio 20/1 (peptide/nucleic acid). Cells were cultured in 48 well plate format and treated with free mRNACas9-gRNA, or ADGN/mRNACas9:gRNA complex. Indel frequencies at the endogenous target sequences was evaluated 72 hours after transfection by either T7E1 method and cell proliferation was analyzed over a period of 5 days using CellTiter Glow kits on GlowMax (Promega).

The subject of another data set is KRAS 35G>A mutant G12D. The description is as above. The note with it: for indel frequencies: deep sequencing, 72 hours after transfection, Cas9 mRNA 0.1 μg, gRNA 0.2 μg; for disruption of G12D mutant KRAS (FIG. 2A): G12D cancer cells vs wild type KRAS cells (HT29 or HS-68). Here is the method: as §1, §2
(§4) Nine different gRNAs targeting KRAS 35G>A mutant G12D (gRNA35A1, gRNA35A2, gRNA35A3, gRNA35A4, gRNA35A5, gRNA35A6; gRNA35A7, gRNA35A8, gRNA35A9) were evaluated on LS513, Panc1, PK-45H, and PK1 cancer cells harboring G12D KRAS mutation. Cas9 mRNA (0.1 μg) and gRNA (0.2 μg) were associated with ADGN-peptide at molar ratio 20/1 (peptide/nucleic acid). LS513, Panc1, PK-45H, PK1, HS-68 and HT-29 cells were cultured in 48 well plate format and treated with free mRNACas9-gRNA, or ADGN/mRNACas9:gRNA complex. Indel frequencies at the endogenous target sequences was evaluated 72 hours after transfection by either T7E1 method or deep sequencing. Cell proliferation was analyzed over a period of 5 days using CellTiter Glow kits on GlowMax (Promega).
as §3

In a further data set the test system is wild type KRAS. The description is as above. The note with it: deep sequencing, 72 hours after transfection, Cas9 mRNA 0.1 μg, gRNA 0.2 μg. Here is the method:
as §1, §2
(§5) Nine different gRNAs targeting KRAS 35G>T mutant G12V (gRNA35T1, gRNA35T2, gRNA35T3, gRNA35T4, gRNA35T5, gRNA35T6, gRNA35T7, gRNA35T8 and gRNA35T9 (see FIG. 18)) were evaluated on SW403 and SW480 cancer cells harboring G12V KRAS mutation. Cas9 mRNA (0.15 μg) and gRNA (0.2 μg) were associated with ADGN-peptides as reported in experimental procedure. SW403, SW480 and HT-29 cells were cultured in 48 well plate format and treated with free mRNACas9-gRNA, or ADGN-100/mRNACas9:gRNA complex. Indel frequencies at the endogenous target sequences was evaluated 72 hours after transfection by either T7E1 method and by deep sequencing. Cell proliferation was analyzed over a period of 5 days using CellTiter Glow kits on GlowMax (Promega).
as §4

Data set [1] concerns PANC1, PK1, LS513 and PK-45H cells. The data set can be described thus: Cell proliferation over 5 days (CellTiter Glow). The following applies: PANC1, PK1, LS513, PK-45H vs HT29 or HS-68 cells harboring KRAS WT. The procedure:
as §2, §4
For orientation: ATP-based viability assays read luminescence as a measure of living cells.

A further data set concerns KRAS 35G>T mutant G12V. The experiment in a line: Indel frequencies at the endogenous target sequences (T7E1 / deep sequencing) after ADGN/Cas9 mRNA/gRNA transfection. The following applies: SW403, SW480 vs wild type KRAS HT29 cells; T7E1. The procedure: as §1, §2, §5, §3

On to “GGTAGTTGGAGCTTGTGGCG (guide GGTAGTTGGAGCTTGTGGCG; chemistry not given here) [gRNA34T4, sgRNA target KRAS G12C mutation (34G>T); PAM TAG]”, for which the “indel editing and disruption of G12C mutant KRAS (FIG. 3A)” value (“indel editing and disruption … (FIG. 3A)” below) with KRAS 34G>T mutant G12C was “inefficient or less specific affecting wild type KRAS”.

For “TGA TGG CGT AGG CAA GAGT (guide TGATGGCGTAGGCAAGAGT; chemistry not given here) [gRNA35A4, sgRNA target KRAS G12D mutation (35G>A); PAM GCC]”, the indel frequencies came out at 5 ± 2% with KRAS 35G>A mutant G12D (LS513 cells); 4 ± 1% in the data set on KRAS 35G>A mutant G12D (PANC1 cells); 9 ± 0.1% with KRAS 35G>A mutant G12D (PK1 cells); 7 ± 2% with KRAS 35G>A mutant G12D (PK-45H cells); 5 ± 0.7% in the data set with wild type KRAS (HS68 cells (WT KRAS)); 2 ± 1% in the data set on wild type KRAS (HT-29 cells (WT KRAS)).

As for “GTAGTTGGAGCTGATGGCGT (guide GTAGTTGGAGCTGATGGCGT; chemistry not given here) [gRNA35A7, sgRNA target KRAS G12D mutation (35G>A); PAM AGG]”, the “disruption of G12D mutant KRAS (FIG. 2A)” value in the data set with KRAS 35G>A mutant G12D is listed as “induced efficient disruption of G12D mutant KRAS”. Further, the indel frequencies in the data set on KRAS 35G>A mutant G12D (LS513 cells) amounted to 24 ± 2%; in the data set on KRAS 35G>A mutant G12D (PANC1 cells) it was 47 ± 1%; in the data set with KRAS 35G>A mutant G12D (PK1 cells), 31 ± 2%; in the data set on KRAS 35G>A mutant G12D (PK-45H cells) it was 35 ± 0.5%; in the data set on wild type KRAS (HS68 cells (WT KRAS)), 4 ± 0.4%; with wild type KRAS (HT-29 cells (WT KRAS)), 7 ± 2%. In addition, the “inhibition of proliferation or survival (FIG. 2B)” value in data set [1] is “specifically inhibit proliferation or survival of PANC1, PK1, LS513 and PK-45H cells”.

Take “CTT GTG GCG TAG GCA AGAGT (guide CTTGTGGCGTAGGCAAGAGT; sgRNA, chemical modifications not given here, further chemistry not given here) [gRNA34T8, sgRNA target KRAS G12C mutation (34G>T); PAM GCC]”: in the data set with KRAS 34G>T mutant G12C, the “indel editing and disruption … (FIG. 3A)” value was “inefficient or less specific affecting wild type KRAS”.

As for “AGC TGA TGG CGT AGG CAA (guide AGCTGATGGCGTAGGCAA; chemistry not given here) [gRNA35A3, sgRNA target KRAS G12D mutation (35G>A); PAM GAG]”, the indel frequencies is 9 ± 1% in the data set on KRAS 35G>A mutant G12D (LS513 cells); 7 ± 1% in the data set with KRAS 35G>A mutant G12D (PANC1 cells); 2 ± 0.5% in the data set on KRAS 35G>A mutant G12D (PK1 cells); 4 ± 1% in the data set with KRAS 35G>A mutant G12D (PK-45H cells); 4 ± 1% in the data set with wild type KRAS (HS68 cells (WT KRAS)); 1 ± 0.5% with wild type KRAS (HT-29 cells (WT KRAS)).

Turning to “AGC TTG TGG CGT AGG CAA (guide AGCTTGTGGCGTAGGCAA; chemistry not given here) [gRNA34T2, sgRNA target KRAS G12C mutation (34G>T); PAM GAG]”, the “indel editing and disruption … (FIG. 3A)” value in the data set with KRAS 34G>T mutant G12C was “inefficient or less specific affecting wild type KRAS”.

Turning to “GCT TGT GGC GTA GGC AA (guide GCTTGTGGCGTAGGCAA; sgRNA, chemical modifications not given here, further chemistry not given here) [gRNA34T7, sgRNA target KRAS G12C mutation (34G>T); PAM GAG]”, in the data set on KRAS 34G>T mutant G12C, the “indel editing and disruption … (FIG. 3A)” value is recorded as “inefficient or less specific affecting wild type KRAS”.

On to “TTG TGG TAG TTG GAG CTG A (guide TTGTGGTAGTTGGAGCTGA; chemistry not given here) [gRNA35A8, sgRNA target KRAS G12D mutation (35G>A); PAM TGG]”, for which the indel frequencies was 7 ± 1% in the data set with KRAS 35G>A mutant G12D (LS513 cells); 9 ± 2% in the data set with KRAS 35G>A mutant G12D (PANC1 cells); 18 ± 1% with KRAS 35G>A mutant G12D (PK1 cells); 11 ± 1% in the data set on KRAS 35G>A mutant G12D (PK-45H cells); 6 ± 0.1% with wild type KRAS (HS68 cells (WT KRAS)); 2 ± 0.2% in the data set on wild type KRAS (HT-29 cells (WT KRAS)).

Regarding “GCT GAT GGC GTA GGC AA (guide GCTGATGGCGTAGGCAA; chemistry not given here) [gRNA35A9, sgRNA target KRAS G12D mutation (35G>A); PAM GAG]”, the “disruption of G12D mutant KRAS (FIG. 2A)” value in the data set on KRAS 35G>A mutant G12D is recorded as “induced efficient disruption of G12D mutant KRAS”. Besides, the indel frequencies worked out at 21 ± 3% with KRAS 35G>A mutant G12D (LS513 cells); 25 ± 3% in the data set with KRAS 35G>A mutant G12D (PANC1 cells); 34 ± 1% with KRAS 35G>A mutant G12D (PK1 cells); 18 ± 2% in the data set on KRAS 35G>A mutant G12D (PK-45H cells); 12 ± 1% in the data set with wild type KRAS (HS68 cells (WT KRAS)); 17 ± 3% in the data set with wild type KRAS (HT-29 cells (WT KRAS)).

Regarding “TTG TGG TAG TTG GAG CTG T (guide TTGTGGTAGTTGGAGCTGT; chemistry not given here) [gRNA35T7, sgRNA target KRAS G12V mutation (c.35G>T); PAM TGG]”, the “indel editing and disruption of G12V mutant KRAS (FIG. 1A)” value with KRAS 35G>T mutant G12V was “specifically induced indel editing and efficient disruption”.
